This is an account of results in patent US20260053798A1, “COMBINATION THERAPY FOR A RAS RELATED DISEASE OR DISORDER” (Revolution Medicines, Inc., priority 2023, published 2026).

SMILES strings stand for the structures.

For one assay, the system named is PDAC KRAS^AMP models. In words: RMC-6236 plus chemotherapy in PDAC KRAS^AMP models. Type of assay: in vivo. The conditions noted are these: FIG. 4.
The next assay deals with PI3K activity. In words: PI3K activity in KRAS wild-type and KRAS^G12X mutant lines. In kind it is cell-based. The settings on record: for PI3K activity: FIG. 5 left.
For another assay, the system named is pERK (MAPK signaling). Briefly: pERK (MAPK signaling) levels in KRAS mutant cell lines. In kind it is cell-based. The settings on record: FIG. 6.
The next assay relates to PIP3 levels. Briefly: PIP3 levels in KRAS-mutant PDAC lines. Type of assay: cell-based. The conditions noted are these: KRAS^G12D-mutant PDAC lines; FIG. 5 right.

Consider `CCn1c(-c2cc(N3CCN(C)CC3)cnc2[C@H](C)OC)c2c3cc(ccc31)-c1csc(n1)C[C@H](NC(=O)[C@H]1C[C@@H]1C)C(=O)N1CCC[C@H](N1)C(=O)OCC(C)(C)C2` [RMC-6236], for which the “activity and durability in combination” value is “combination benefit resulting in increased activity and durability” in the assay on PDAC KRAS^AMP models (combined with FOLFIRINOX); “combination benefit resulting in increased activity and durability” with PDAC KRAS^AMP models (combined with GEM+Abraxane). For the same molecule, the “monotherapy activity versus chemotherapy” value in the assay with PDAC KRAS^AMP models (monotherapy, EGFR-mutant PDAC (so in the source)) is reported as “comparable activity against EGFR-mutant PDAC as chemotherapy”.
Consider `CCn1c(-c2cc(N3CCN(C4CC4)CC3)cnc2[C@H](C)OC)c2c3cc(ccc31)-c1csc(n1)C[C@H](NC(=O)C1[C@H]3COC[C@@H]13)C(=O)N1CCC[C@H](N1)C(=O)OCC(C)(C)C2` (stereo partly shown) [RMC-7977], for which the PI3K activity entry is recorded as “moderate inhibitory effect” in the assay on PI3K activity (KRAS^G12C); “completely suppressed” in the assay with PI3K activity (KRAS^G12D); “no effect” with PI3K activity (KRAS^G12R line); “moderate inhibitory effect” in the assay with PI3K activity (KRAS^G12V); “completely suppressed” in the assay on PI3K activity (KRAS^WT). The “PI3K and MAPK activity (summary statement)” value with PI3K activity (KRAS^G12R lines) was “not”; in the assay with PI3K activity (isogenic and mutant KRAS^G12D lines), “suppresses both PI3K and MAPK activity”. Moreover, the “levels of pERK (MAPK signaling)” value in the assay on pERK (MAPK signaling) (KRAS^G12D mutant cell lines) and with pERK (MAPK signaling) (KRAS^G12R mutant cell lines) was “decreased” each time. Besides, the PIP3 levels result in the assay on PIP3 levels was “suppresses”.
